From US20080235824A1, “Use of Esterase Genes as Selectable Markers for Transforming Plant Cells” (priority 2006, published 2008)

Tests used:
[1] = test system: tomato cultivar Micro-Tom leaf explants; experiment: Agrobacterium transformation of tomato with selection on detergent or kanamycin; format: cell-based, Lycopersicon esculentum; settings: tomato Micro-Tom, pIPG768 nptII, 100 micrograms/ml kanamycin, Exp. 1, 98 explants; for Transformation frequency (%): confirmed by PCR
Excerpt: Transgenic tomato (Lycopersicon esculentum) cultivar “Micro-Tom” plants were created using the Agrobacterium tumefaciens DNA delivery method [Riggs et al., 2001; Sun et al., 2006] using pIPG768. Selection was either on 1% Tween 20 added to both shoot and root regeneration media. As controls for comparative purposes, 100 micrograms/ml kanamycin was used.

[2] = test system: tobacco cultivar Xanthi leaf explants; experiment: Agrobacterium transformation of tobacco with selection on detergent or kanamycin; format: cell-based, Nicotiana tabacum; settings: tobacco Xanthi, pIPG786 nptII, 100 micrograms/ml kanamycin, 235 explants
Excerpt: Transgenic tobacco (Nicotiana tabacum) cultivar “Xanthi” plants were created using the Agrobacterium tumefaciens DNA delivery method [Horsch et al., 1985] using pIPG833. Selection was on 1% or on 0.05% Tween 20 added to both shoot and root regeneration media. As a control for comparative purposes, pIPG786 was used (carrying the nptII gene for kanamycin resistance) for transformation and 100 micrograms/ml kanamycin was used for selection.
Transgenic tobacco (Nicotiana tabacum) cultivar “Xanthi” plants were created using the Agrobacterium tumefaciens DNA delivery method [Horsch et al., 1985] using pIPG833. Selection was on 1% or on 0.05% Span 20 added to both shoot and root regeneration media.
Transgenic tobacco (Nicotiana tabacum) cultivar “Xanthi” plants were created using the Agrobacterium tumefaciens DNA delivery method [Horsch et al., 1985] using pIPG875. Selection was on 1% Span 20 added to the shoot regeneration medium and 0.05% Span 20 added to the root regeneration medium.

[3] = test system: geranium petiole explants; experiment: Survival of geranium petiole explants on regeneration medium with detergents; format: cell-based, Pelargonium X hortorum; settings: for Survival of geranium petiole explants on regeneration medium: surviving/total explants
Experimental: Tween 20, a nonionic, fatty acid ester detergent, was evaluated as a potential selective agent for use in geranium (Pelargonium X hortorum) transformation experiments by placing geranium petiole explants into tissue culture with the addition to Tween 20 to the regeneration (shooting) medium normally used in geranium transformations (Robichon et al., 1995). Tween 20 was added at three concentrations: 1%, 0.1% and 0.01%. Each treatment consisted of 40 sterilized petiole explants placed in four tissue culture plates carrying 10 explants each. Survival of the explants was assayed weekly over four weeks on these media. Potential selective agent Span 20, also a nonionic, fatty acid ester detergent, was similarly evaluated, except that concentrations of 1%, 0.5% and 0.25% were evaluated over a twelve week period of time. The nonionic detergent Triton X-100, which is not a fatty acid ester detergent, was included for comparative purposes.

tomato leaf explants = experiment: Survival of tomato leaf explants on regeneration medium with detergents; format: cell-based, Lycoperisicon esculentum; settings: 1% detergent; for Survival of tomato leaf explants on regeneration medium: surviving/total explants
Experimental: Tween 20 was similarly evaluated as a potential selective agent for use in tomato (Lycoperisicon esculentum) transformations by placing tomato leaf explants placed into tissue culture; Tween 20 was added to tomato regeneration (shooting) medium normally used in tomato transformations (Riggs et al., 2001) at a 1% concentration. Each treatment consisted of 40 sterilized leaf explants placed in four tissue culture plates carrying 10 explants each. Survival of the explants was assayed weekly over four weeks on these media.

[4] = Phenol red lipase/esterase assay with crude plant leaf extracts; format: biochemical; settings: transiently plant-expressed enzyme or positive control
Excerpt: In this Figure, the first tube on the left (labeled “Buffer”) contains phenol red buffer and Tween 20 (the dark red color appears dark in this black and white figure); the second tube to the right (“SL”) has 4 Units of Sigma porcine pancreatic lipase added (the bright yellow color appears light); the third tube to the right (labeled “731”) has a twenty microliter droplet of a crude tomato plant leaf extract from leaves inoculated 4 days earlier with GV2260 carrying “empty” (ie., no lipase gene) expression vector pIPG731 (the dark red color appears dark), and the fourth tube to the right (“768 WI”) has a twenty microliter droplet of crude tomato plant leaf extract from leaves inoculated four days earlier with GV2260 carrying cloned bovine pregastric esterase expressed in pIPG768 (the bright yellow color appears light). Tomato leaf tissue particles may be seen floating in the third and fourth tubes to the right. […] The photo was taken 16 hrs. after start of the assay.
For transient expression assays of bovine PGE, the plant transformation and expression vectors constructed in Example 12 were moved into A. tumefaciens strain GV2260 by either electroporation or bacterial conjugation as described (Kapila et al., 1997). GV2260 carrying pIPG745 or pIPG746 was used for transient expression in tobacco, pepper, tomato, citrus, geranium, and rice plants as described (Kapila et al. 1997; Duan et al., 1999; Wroblewski et al. 2005). Cultures of Agrobacterium harboring the constructs of interest were grown in minimal medium in the presence of acetosyringone to induce the Agrobacterium vir genes. The optical density of the cultures was maintained at 0.008 for pepper and tomato and at 0.25 for citrus, geranium and rice. Strain GV2260 was flooded into healthy, young, fully expanded leaves of vigorous plants into the apoplastic space through open stomata by injection using a tuberculin syringe without a needle, flooding entire leaves. After 3-4 days, two grams of leaf tissue (fresh weight), was ground in liquid nitrogen to a fine powder, and 0.5 ml of ice cold phosphate buffered saline (PBS; 137 mM NaCl, 2.7 mM KCl, 10 mM potassium phosphate, pH 7.4) was added and mixed thoroughly at 4 C. The mixture was mixed on an orbital shaker at 4 C for 30 minutes, and plant debris was pelleted at 10,000×g for 15 minutes and discarded. The supernatants from these crude plant leaf extracts were directly used in lipase/esterase assays.
The second activity assay was a phenol red lipase/esterase assay using tributyrin, olive oil or Tween 20 as substrates as described by Singh et al. (2006), except that liquid medium, rather than solidified agar medium, was used. Twenty microliter droplets of crude plant leaf extracts and the positive control were placed in the tributyrin/phenol red medium containing tributyrin, olive oil or Tween 20 and incubated at 30 C overnight. […] Transient expression of bovine PGE was confirmed in tobacco, pepper, tomato, citrus, geranium, and rice plants.
For transient expression assays, the plant transformation and expression vectors constructed in Example 15 were moved into A. tumefaciens strain GV2260 by electroporation. GV2260 carrying pIPG823 was used for transient expression in tobacco and geranium plants exactly as described in Example 20. The supernatants from crude plant leaf extracts were directly used in phenol red lipase/esterase assays using tributyrin and olive oil as substrates exactly as described in Example 20.

NC[C@H]1O[C@H](O[C@H]2[C@H](O)[C@@H](O[C@H]3O[C@H](CO)[C@@H](O)[C@H](N)[C@H]3O)[C@H](N)C[C@@H]2N)[C@H](O)[C@@H](O)[C@@H]1O [kanamycin, reference compound]
No. of independent calli forming shoots [1]: 40
No. of rooted shoots [1]: 40
Transformation frequency (%) [1]: 1%
Transformation frequency (%) ([1]; listed as Kanamycin): 1%
No. of independent calli forming shoots [2]: 55
No. of rooted shoots [2]: 55
Transformation frequency (%) ([2]; confirmed by PCR): 19%

Triton X-100
Survival of geranium petiole explants on regeneration medium ([3]; 0.01% detergent, Week 1): 39/40
Survival of geranium petiole explants on regeneration medium ([3]; 0.01% detergent, Week 2): 39/40
Survival of geranium petiole explants on regeneration medium ([3]; 0.01% detergent, Week 3): 39/40
Survival of geranium petiole explants on regeneration medium ([3]; 0.01% detergent, Week 4): 14/40
Survival of geranium petiole explants on regeneration medium ([3]; 0.1% detergent, Week 1): 40/40
Survival of geranium petiole explants on regeneration medium ([3]; 0.1% detergent, Week 2): 40/40
Survival of geranium petiole explants on regeneration medium ([3]; 0.1% detergent, Week 3): 40/40
Survival of geranium petiole explants on regeneration medium ([3]; 0.1% detergent, Week 4): 9/40
Survival of geranium petiole explants on regeneration medium ([3]; 1% detergent, Week 1): 39/40
Survival of geranium petiole explants on regeneration medium ([3]; 1% detergent, Week 2): 39/40
Survival of geranium petiole explants on regeneration medium ([3]; 1% detergent, Week 3): 37/40
Survival of geranium petiole explants on regeneration medium ([3]; 1% detergent, Week 4): 19/40
Killing of geranium explants in tissue culture (in words) ([3]; summary of Table 1): much less efficient and much more variable in killing
Survival of tomato leaf explants on regeneration medium (tomato leaf explants; Week 1): 40/40
Survival of tomato leaf explants on regeneration medium (tomato leaf explants; Week 2): 40/40
Survival of tomato leaf explants on regeneration medium (tomato leaf explants; Week 3): 10/40
Survival of tomato leaf explants on regeneration medium (tomato leaf explants; Week 4): 7/40
Killing of tomato explants in tissue culture (in words) (tomato leaf explants; summary of Table 2): both less effective and unpredictable in killing

B1: bovine PGE: bovine pregastric esterase, cloned from calf salivary glands and expressed in plants (protein)
chain: MWWLLVTVCFIHMSGNAFCFLGKIAKNPEASMNVSQMISYWGYPSEMHKVITADGYILQVYRIPHGKNNANHLGQRPVVFLQHGLLGSATNWISNLPKNSLGFLLADAGYDVWLGNSRGNTWAQEHLYYSPDSPEFWAFSFDEMAEYDLPSTIDFILRRTGQKKLHYVGHSQGTTIGFIAFSTNPTLAEKIKVFYALAPVATVKYTKSLFNKLALIPHFLFKIIFGDKMFYPHTFLEQFLGVEMCSRETLDVLCKNALFAITGVDNKNFNMSRLDVYIAHNPAGTSVQNTLHWRQAVKSGKFQAFDWGAPYQNLMHYHQPTPPIYNLTAMNVPIAVWSADNDLLADPQDVDLLLSKLSNLIYHKEIPNYNHLDFIWAMDAPQEVYNEIVSLMAEDKKEL
modifications: Bovine pregastric esterase cloned by IPG, translation product, with native leader and two amino acids added to form an ER retention signal sequence
notes: bovine pregastric esterase, cloned from calf salivary glands and expressed in plants
Substrates utilized in phenol red lipase/esterase assay [4]: utilized all three substrates: tributyrin, olive oil and Tween 20

B2: nematode triglyceride lipase-cholesterol esterase: C. elegans triglyceride lipase-cholesterol esterase expressed in plants (protein)
chain: MKSLLLLFLLFLHTLCENVTTPNSEEDTDMTATPSTITPLLSTAQNPSLPKTSKLPLALKTPVPTFPFSSLATSDWLSSMPTIQTLLPPPLPLTTLEVPENENFGFTSLAPLWTLPTQPPAWSPMLDSPIKPIQNSMFPTFPTMPTLPTLPTLAPFTFPTLPPPTTMKPLNITIDPEALMDVPEIITHWGYPVETHKVVTVDGYILTLHRIPHSKNETSKSASKTPKPVVFLQHGLLCTSSIWLLNLPRQSAGYIFADQGYDVWLGNMRGNTYSKEHTRMTSADRRFWKFSWEEMARYDLPAMINYALKTTKRQNLYYVGHSQGALTMFAKMSEDPEMSKKIRKFFAMAPVARMSHVKGLFQNLGQIYEQYNLVYQVFGDGEFLTNNIFTKLLTDIFCDQAVNNPLCENFIFAVSGPNSNQFNNSRIGIYLAHNPAGTSSRNILHFAQMVKKKRMSRFDHGKDLNLKIYGAPSPPEYDIRKINSSIYLFYSDFDWLANPKDVEGFLIPMLPSKTLKKATKLRDFNHNDFLWGMRARKEIYDKIINTIKLDQRRVKLQNSMERFFERQSRNPTSGLDEETMMRLRNETMNLD
modifications: Caenorhabditis elegans
notes: C. elegans triglyceride lipase-cholesterol esterase expressed in plants
Substrates utilized in phenol red lipase/esterase assay [4]: utilized tributyrin and olive oil
